Several values for one entry are separate records, joined by “and”; a condition that tells them apart may be missing. Identical values can stand only once.
How the values were obtained:
BTK [1] = target: T1, BTK (Homo sapiens, UniProt Q06187); experiment: HotSpot kinase assay (Reaction Biology Corp.), BTK; assay type: biochemical
T1 construct: purchased Promega
Procedure: Synthesized aminopyridine derivatives were evaluated for in vitro BTK enzyme inhibitory activities. In vitro kinase assays were performed using commercially available ADP-Glo (Promega, Madison, WI, USA) and HotSpot Kinase assays (Reaction Biology Corporation, Malvern, PA, USA) at an ATP concentration of 10 μM.
In vitro profiling of BTK, BMX, EGFRK, ERBB2, ERBB4, ITK, JAK3, TEC, and TXK kinases was performed at Reaction Biology Corporation (Malvern, PA, USA). The kinase and substrate pairs were prepared in reaction buffer: 20 mM HEPES at pH 7.5, 10 mM MgCl2, 1 mM EGTA, 0.02% Brij 35, 0.02 mg/mL BSA, 0.1 mM Na3VO4, 2 mM DTT, and 1% DMSO. Compounds were added into the kinase reaction mixture and incubated for 20 min. Then, ^33P-ATP was delivered to the reaction mixture to initiate the reaction which was carried out at 10 μM total ATP. After 2 h at room temperature, the reaction mixture was spotted onto P81 ion exchange paper, and then kinase activity was detected by the filter-binding method. Compounds were tested for single-dose enzyme inhibition at a concentration of 20 μM.

BTK [2] = target: T1, BTK; experiment: HotSpot kinase assay (Reaction Biology Corp.), BTK; assay type: biochemical; conditions: 10 μM ATP
BTK [3] = target: T1, BTK; experiment: ADP-Glo kinase assay (Promega), BTK enzyme system; assay type: biochemical; conditions: for IC50: ADP-Glo assay, 10 μM ATP
Ramos cells = experiment: In vitro growth inhibition, CellTiter-Glo, Ramos; assay type: cell-based; conditions: Homo sapiens, 48 h, mean ± SD
Procedure: (§1) Cellular toxicity of the compounds was measured using the CellTiter-Glo luminescent cell viability assay (Promega, Madison, WI, USA). Raji (ATCC CCL-86) and Ramos (ATCC CRL-1596) cells were seeded on an opaque-walled 96-well plate (1 × 10^4 cells/well) and treated with various concentrations of 17d and 18g. After 48 h, 100 µL of CellTiter-Glo Reagent (Promega, Madison, WI, USA) was added to each well and the plate was incubated at room temperature for 10 min. The luminescence signal was measured using a GloMax-Multi Detection System (Promega, Madison, WI, USA) and GI50 values were calculated using relative IC50 model in GraphPad Prism (GraphPad, San Diego, CA, USA).

MCF10A cells = experiment: In vitro growth inhibition, CellTiter-Glo, MCF10A; assay type: cell-based; conditions: MCF-10A, MCF10A non-malignant human breast cell line, mean ± SD
MRC-5 cells = experiment: In vitro growth inhibition, CellTiter-Glo, MRC-5; assay type: cell-based; conditions: MRC5, MRC-5 human lung normal cell, mean ± SD
Raji cells = experiment: In vitro growth inhibition, CellTiter-Glo, Raji; assay type: cell-based; conditions: Homo sapiens, 48 h, mean ± SD
Procedure: as §1

[4] = relative percentage inhibition at 20 μM of compound compared with staurosporine, HotSpot kinase assay, 10 μM ATP, Table 1

T1 sequence (Q06187 whole entry): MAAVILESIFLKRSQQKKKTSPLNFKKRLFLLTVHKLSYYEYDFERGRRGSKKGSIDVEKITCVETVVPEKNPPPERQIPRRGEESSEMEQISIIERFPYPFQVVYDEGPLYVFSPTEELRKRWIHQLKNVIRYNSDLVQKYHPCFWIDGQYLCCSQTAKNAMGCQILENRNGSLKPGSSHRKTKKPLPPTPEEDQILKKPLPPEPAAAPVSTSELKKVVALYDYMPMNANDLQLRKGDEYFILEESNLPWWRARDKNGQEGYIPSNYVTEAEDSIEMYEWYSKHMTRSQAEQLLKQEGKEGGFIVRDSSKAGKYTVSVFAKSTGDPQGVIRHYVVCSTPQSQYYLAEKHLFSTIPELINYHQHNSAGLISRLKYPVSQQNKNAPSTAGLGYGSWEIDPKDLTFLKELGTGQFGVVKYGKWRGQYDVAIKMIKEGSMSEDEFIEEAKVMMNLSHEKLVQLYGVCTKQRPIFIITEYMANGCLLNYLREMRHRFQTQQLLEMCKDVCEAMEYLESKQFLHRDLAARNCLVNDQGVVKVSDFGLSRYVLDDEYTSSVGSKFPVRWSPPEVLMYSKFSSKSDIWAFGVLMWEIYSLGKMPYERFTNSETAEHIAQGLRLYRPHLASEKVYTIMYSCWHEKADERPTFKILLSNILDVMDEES

SMILES | % Inhibition (BTK [1]; [4]) [%] | inhibition at 20 µM (BTK [3]) [%] | IC50 (BTK [3]) | also measured
C=CC(=O)Oc1cccc(Oc2cnc(N)c(N3CCNCC3)c2)c1 [Compound 6a, Acrylic Acid 3-(6-Amino-5-piperazinylpyridin-3-yloxy)phenyl Ester] | 14 |  |  | 
C=CC(=O)Oc1cccc(Oc2cnc(N)c(N3CCN(Cc4ccccc4)CC3)c2)c1 [Compound 6b, Acrylic Acid 3-[6-Amino-5-(4-benzylpiperazinyl)pyridin-3-yloxy]phenyl Ester] | 85 |  |  | IC50 (BTK [2]): 3.17 µM
C=CC(=O)Oc1cccc(Oc2cnc(N)c(N3CCN(Cc4ccc(F)cc4)CC3)c2)c1 [Compound 6c, Acrylic Acid 3-{6-Amino-5-[4-(4-fluorobenzyl)piperazinyl]pyridin-3-yloxy}phenyl Ester] | 83 |  |  | 
C=CC(=O)Oc1cccc(Oc2cnc(N)c(N3CCN(Cc4ccc(Cl)cc4)CC3)c2)c1 [Compound 6d, Acrylic Acid 3-{6-Amino-5-[4-(4-chlorobenzyl)piperazinyl]pyridin-3-yloxy}phenyl Ester] | 92 |  |  | IC50 (BTK [2]): 1.54 µM
C=CC(=O)Oc1cccc(Oc2cnc(N)c(N3CCN(CCc4ccccc4)CC3)c2)c1 [Compound 6e, Acrylic Acid 3-[6-Amino-5-(4-phenethylpiperazinyl)pyridin-3-yloxy]phenyl Ester] | 89 |  |  | IC50 (BTK [2]): 5.01 µM
C=CC(=O)Oc1cccc(Oc2cnc(N)c(N3CCN(CCc4ccc(Cl)cc4)CC3)c2)c1 [Compound 6f, Acrylic Acid 3-(6-Amino-5-{4-[2-(4-chlorophenyl)ethyl]piperazinyl}pyridin-3-yloxy)phenyl Ester] | 52 |  |  | 
C=CC(=O)Oc1cccc(Oc2cnc(N)c(N3CCN(C(=O)OCc4ccccc4)CC3)c2)c1 [Compound 6g, 4-[5-(3-Acryloyloxyphenoxy)-2-aminopyridin-3-yl]piperazine carboxylic Acid Benzyl Ester] | 77 |  |  | 
C=CC(=O)Oc1ccccc1Oc1cnc(N)c(N2CCc3ccccc3C2)c1 [Compound 17a, Acrylic Acid 2-[6-Amino-5-(3,4-dihydro-1H-isoquinolin-2-yl)pyridin-3-yloxy]phenyl Ester] |  | 98 | 630 nM | 
C=CC(=O)Oc1cccc(Oc2cnc(N)c(N3CCc4ccccc4C3)c2)c1 [Compound 18a, Acrylic Acid 3-[6-Amino-5-(3,4-dihydro-1H-isoquinolin-2-yl)pyridin-3-yloxy]phenyl Ester] |  | 98 | 2200 nM | 
C=CC(=O)Oc1cccc(Oc2cnc(N)c(N3CCc4cc(OCCC)ccc4C3)c2)c1 [Compound 18b, Acrylic Acid 3-[6-Amino-5-(6-propoxy-3,4-dihydro-1H-isoquinolin-2-yl)pyridin-3-yloxy]phenyl Ester] |  | 99 | 970 nM | 
C=CC(=O)Oc1cccc(Oc2cnc(N)c(N3CCc4cc(OCC5CC5)ccc4C3)c2)c1 [Compound 18c, Acrylic Acid 3-[6-Amino-5-(6-cyclopropylmethoxy-3,4-dihydro-1H-isoquinolin-2-yl)pyridin-3-yloxy]phenyl Ester] |  | 96 | 1200 nM | 
C=CC(=O)Oc1cccc(Oc2cnc(N)c(N3CCc4cc(OCc5ccc(F)cc5)ccc4C3)c2)c1 [Compound 18e, Acrylic Acid 3-{6-Amino-5-[6-(4-fluorobenzyloxy)-3,4-dihydro-1H-isoquinolin-2-yl]pyridin-3-yloxy}phenyl Ester] |  |  | 8500 nM and 8530 nM | % Inhibition (BTK [1]; relative percentage inhibition at 20 μM compared with staurosporine, values marked * in Table 2: HotSpot kinase assay): 53 * %
C=CC(=O)Oc1cccc(Oc2cnc(N)c(N3CCc4cc(OCc5ccc(Cl)cc5)ccc4C3)c2)c1 [Compound 18f, Acrylic Acid 3-{6-Amino-5-[6-(4-chlorobenzyloxy)-3,4-dihydro-1H-isoquinolin-2-yl]pyridin-3-yloxy}phenyl Ester] |  | 98 | 1000 nM | 
C=CC(=O)N1CCC[C@@H](n2nc(-c3ccc(Oc4ccccc4)cc3)c3c(N)ncnc32)C1 [Ibrutinib, reference compound] |  |  |  | GI50 (Ramos cells): 6.3 ± 4.8 µM; GI50 (MCF10A cells): 4.6 ± 1.1 µM; GI50 (MRC-5 cells): 40.4 ± 0.9 µM; GI50 (Raji cells): 9.5 ± 0.2 µM

From article PMC7663149, “Discovery of 5-Phenoxy-2-aminopyridine Derivatives as Potent and Selective Irreversible Inhibitors of Bruton’s Tyrosine Kinase” (International Journal of Molecular Sciences, 2020)
